A value given as a limit tells only on which side of the number the result lay.

The first assay addresses recombinant human SYK (GST-hSYK fusion protein) (Homo sapiens, UniProt P43405). Nature of the assay: biochemical. The conditions noted are these: RHSYK Activity, Table 54A.
Source text: Homogeneous Time-Resolved Fluorescence (HTRF) Assay for the Recombinant Human SYK Enzyme:
Turning to `Cc1cc(Nc2nccc(C(F)(F)F)n2)cc(-c2cnc(C3(O)CCN(C(=O)c4nc[nH]n4)CC3)s2)c1` [Example 54A-30], the IC50 was under 100 nM.
On the same count and under the same terms, under `Cc1cc(Nc2nccc(C(F)(F)F)n2)cc(-c2cnc(C3(O)CCN(C(=O)c4c[nH]nn4)CC3)s2)c1` [Example 54A-31] stands under 100 nM; under `Cc1cc(Nc2nccc(C(F)(F)F)n2)cc(-c2cnc(C3(O)CCN(C(=O)C4CCOC4)CC3)s2)c1` (stereo not drawn) [Example 54A-32], under 100 nM.
Still for that read-out and setting: under `Cc1cc(Nc2nccc(C(F)(F)F)n2)cc(-c2cnc(C3(O)CCN(C(=O)C4CC(O)C4)CC3)s2)c1` (stereo not drawn) [Example 54A-33] stands under 100 nM; under `Cc1cc(Nc2nccc(C(F)(F)F)n2)cc(-c2cnc(C3(O)CCN(C(=O)c4ccccc4)CC3)s2)c1` [Example 54A-34], under 100 nM.
Same read-out and setting: as for `Cc1cc(Nc2nccc(C(F)(F)F)n2)cc(-c2cnc(C3(O)CCN(C(=O)Cn4ccnc4)CC3)s2)c1` [Example 54A-35], the figure is under 100 nM.
As to `Cc1cc(Nc2nccc(C(F)(F)F)n2)cc(-c2cnc(C3(O)CCN(C(=O)Cc4c[nH]cn4)CC3)s2)c1` [Example 54A-36], the IC50 is under 100 nM.
As for `Cc1cc(Nc2nccc(C(F)(F)F)n2)cc(-c2cnc(C3(O)CCN(C(=O)Cn4cncn4)CC3)s2)c1` [Example 54A-37], the concentration for half-maximal inhibition (IC50) is under 100 nM.
As for `Cc1cc(Nc2nccc(C(F)(F)F)n2)cc(-c2cnc(C3(O)CCN(C(=O)[C@@H]4CCC(=O)N4)CC3)s2)c1` [Example 54A-38], the IC50 was under 100 nM.
For the compound `Cc1cc(Nc2nccc(C(F)(F)F)n2)cc(-c2cnc(C3(O)CCN(C(=O)C4CNC(=O)N4)CC3)s2)c1` (stereo not drawn) [Example 54A-39], the IC50 is under 100 nM.
Same read-out and setting: as for `Cc1cc(Nc2nccc(C(F)(F)F)n2)cc(-c2cnc(C3(O)CCN(C(=O)CC4CCOC4)CC3)s2)c1` (stereo not drawn) [Example 54A-40], the figure is under 100 nM; as for `Cc1cc(Nc2nccc(C(F)(F)F)n2)cc(-c2cnc(C3(O)CCN(C(=O)C4CCCOC4)CC3)s2)c1` (stereo not drawn) [Example 54A-41], under 100 nM.
On the same count and under the same terms, under `Cc1cc(Nc2nccc(C(F)(F)F)n2)cc(-c2cnc(C3(O)CCN(C(=O)CC4CCCO4)CC3)s2)c1` (stereo not drawn) [Example 54A-42] stands under 100 nM; under `CCOC(=O)CC(=O)N1CCC(O)(c2ncc(-c3cc(C)cc(Nc4nccc(C(F)(F)F)n4)c3)s2)CC1` [Example 54A-43], under 100 nM.
`Cc1cc(Nc2nccc(C(F)(F)F)n2)cc(-c2cnc(C3(O)CCN(C(=O)C(C)(CO)CO)CC3)s2)c1` [Example 54A-44]: the IC50 was under 100 nM.
As to `Cc1cc(Nc2nccc(C(F)(F)F)n2)cc(-c2cnc(C3(O)CCN(C(=O)Cc4cccnc4)CC3)s2)c1` [Example 54A-45], the concentration for half-maximal inhibition (IC50) was under 100 nM.
On the same count and under the same terms, under `Cc1cc(Nc2nccc(C(F)(F)F)n2)cc(-c2cnc(C3(O)CCN(C(=O)Cc4ccccn4)CC3)s2)c1` [Example 54A-46] stands under 100 nM; under `Cc1cc(Nc2nccc(C(F)(F)F)n2)cc(-c2cnc(C3(O)CCN(C(=O)CS(C)(=O)=O)CC3)s2)c1` [Example 54A-47], under 100 nM.
The same measure, in the same setting: as for `Cc1cc(Nc2nccc(C(F)(F)F)n2)cc(-c2cnc(C3(O)CCN(C(=O)CCc4cn[nH]c4)CC3)s2)c1` [Example 54A-50], the figure is under 100 nM; as for `Cc1cc(Nc2nccc(C(F)(F)F)n2)cc(-c2cnc(C3(O)CCN(C(=O)CCn4cncn4)CC3)s2)c1` [Example 54A-51], under 100 nM.
On the same count and under the same terms, as for `Cc1cc(Nc2nccc(C(F)(F)F)n2)cc(-c2cnc(C3(O)CCN(C(=O)[C@@H]4CCCC(=O)N4)CC3)s2)c1` [Example 54A-52], the figure is under 100 nM; as for `Cc1cc(Nc2nccc(C(F)(F)F)n2)cc(-c2cnc(C3(O)CCN(C(=O)CC4CCOCC4)CC3)s2)c1` [Example 54A-53], under 100 nM; as for `COC(=O)C1(C(=O)N2CCC(O)(c3ncc(-c4cc(C)cc(Nc5nccc(C(F)(F)F)n5)c4)s3)CC2)CC1` [Example 54A-54], under 100 nM.
As to `C#Cc1ccc(C(=O)N2CCC(O)(c3ncc(-c4cc(C)cc(Nc5nccc(C(F)(F)F)n5)c4)s3)CC2)cc1` [Example 54A-55], the IC50 was under 100 nM.
Same read-out and setting: under `Cc1cc(Nc2nccc(C(F)(F)F)n2)cc(-c2cnc(C3(O)CCN(C(=O)c4ccc(C#N)cc4)CC3)s2)c1` [Example 54A-56] stands under 100 nM; under `Cc1cc(Nc2nccc(C(F)(F)F)n2)cc(-c2cnc(C3(O)CCN(C(=O)c4ccc(O)c(F)c4)CC3)s2)c1` [Example 54A-57], under 100 nM; under `Cc1cc(Nc2nccc(C(F)(F)F)n2)cc(-c2cnc(C3(O)CCN(C(=O)CC(N)C(F)(F)F)CC3)s2)c1` (stereo not drawn) [Example 54A-58], under 100 nM.
Regarding `COC(=O)CN1CCC(O)(c2ncc(-c3cc(C)cc(Nc4nccc(C(F)(F)F)n4)c3)s2)CC1` [Example 54A-70], the IC50 is under 100 nM.
`COC(=O)CCN1CCC(O)(c2ncc(-c3cc(C)cc(Nc4nccc(C(F)(F)F)n4)c3)s2)CC1` [Example 54A-71]: the IC50 was under 100 nM.
Regarding `COC(=O)C(C)N1CCC(O)(c2ncc(-c3cc(C)cc(Nc4nccc(C(F)(F)F)n4)c3)s2)CC1` (stereo not drawn) [Example 54A-72], the IC50 is under 100 nM.
Still for that read-out and setting: under `COC(=O)CCCN1CCC(O)(c2ncc(-c3cc(C)cc(Nc4nccc(C(F)(F)F)n4)c3)s2)CC1` [Example 54A-73] stands under 100 nM.

The same assay, now with this note: rhSYK Activity, Table 54D.
With `Cc1cc(Nc2nccc(C(C)C)n2)cc(-c2cnc(C3(O)CCCNCC3)s2)c1` (stereo not drawn) [Example 54D-1], the IC50 was under 100 nM.
Same read-out and setting: as for `CC(=O)N1CCCC(O)(c2ncc(-c3cc(C)cc(Nc4nccc(C(F)(F)F)n4)c3)s2)CC1` (stereo not drawn) [Example 54D-2], the figure is under 100 nM; as for `Cc1cc(Nc2nccc(C(C)C)n2)cc(-c2cnc(C3(O)CCCN(C(=O)C(C)O)CC3)s2)c1` (stereo not drawn) [Example 54D-4], under 100 nM; as for `CCC(=O)N1CCCC(O)(c2ncc(-c3cc(C)cc(Nc4nccc(C(F)(F)F)n4)c3)s2)CC1` (stereo not drawn) [Example 54D-5], under 100 nM.
Still for that read-out and setting: as for `Cc1cc(Nc2nccc(C(C)C)n2)cc(-c2cnc(C3(O)CCCN(C(=O)CC(N)=O)CC3)s2)c1` (stereo not drawn) [Example 54D-6], the figure is under 100 nM.
On the same count and under the same terms, as for `Cc1cc(Nc2nccc(C(C)C)n2)cc(-c2cnc(C3(O)CCCN(C(=O)CC(=O)O)CC3)s2)c1` (stereo not drawn) [Example 54D-7], the figure is under 100 nM; as for `Cc1cc(Nc2nccc(C(C)C)n2)cc(-c2cnc(C3(O)CCCN(C(=O)C(O)CO)CC3)s2)c1` (stereo not drawn) [Example 54D-8], under 100 nM.
With `Cc1cc(Nc2nccc(C(F)(F)F)n2)cc(-c2cnc(C3(O)CCCN(C(=O)CC#N)CC3)s2)c1` (stereo not drawn) [Example 54D-9], the IC50 was under 100 nM.
Still for that read-out and setting: under `Cc1cc(Nc2nccc(C(F)(F)F)n2)cc(-c2cnc(C3(O)CCCN(C(=O)C4CC4)CC3)s2)c1` (stereo not drawn) [Example 54D-10] stands under 100 nM.
Same read-out and setting: as for `C=CCC(=O)N1CCCC(O)(c2ncc(-c3cc(C)cc(Nc4nccc(C(F)(F)F)n4)c3)s2)CC1` (stereo not drawn) [Example 54D-11], the figure is under 100 nM; as for `COCC(=O)N1CCCC(O)(c2ncc(-c3cc(C)cc(Nc4nccc(C(F)(F)F)n4)c3)s2)CC1` (stereo not drawn) [Example 54D-12], under 100 nM; as for `Cc1cc(Nc2nccc(C(F)(F)F)n2)cc(-c2cnc(C3(O)CCCN(C(=O)CCO)CC3)s2)c1` (stereo not drawn) [Example 54D-13], under 100 nM.
Still for that read-out and setting: as for `Cc1cc(Nc2nccc(C(F)(F)F)n2)cc(-c2cnc(C3(O)CCCN(C(=O)C(C)O)CC3)s2)c1` (stereo not drawn) [Example 54D-14], the figure is under 100 nM; as for `Cc1cc(Nc2nccc(C(C)C)n2)cc(-c2cnc(C3(O)CCCN(C(=O)CCC(N)=O)CC3)s2)c1` (stereo not drawn) [Example 54D-15], under 100 nM.

The record behind these values is patent US8551984B2, “Aminopyrimidines as SYK inhibitors” (Merck Sharp & Dohme Corp., priority 2009, dated 2013).
